Assay results as given in patent US20070203144A1, “Use of Memantine and Brimonidine to Attenuate Vitreoretinal Vascular Endothelial Growth Factor (VEGF) Protein Levels in Animals” (Allergan, Inc., priority 2006, published 2007).

Legend:
[1] = test system: VEGF protein; test: Vitreal VEGF protein level in STZ-induced diabetic Long Evans rats; type: in vivo; conditions: STZ diabetic LE rats, mini-osmotic pump, STZ/Veh 228, Veh/Veh 164
Protocol: Long Evans (LE) rats were treated with vehicle or streptozotocin (1×, 65 mg/kg). After 7 days, vehicle treated rats were treated further with a second vehicle and STZ treated diabetic rats were treated either with a second vehicle, Brimonidine (1 mg/kg/d) as a positive control, Panagonist A (300 ug/kg/d) or panagonist B (300 ug or 3 mg/kg/d) for another 3 wks using mini-osmotic pumps. Note that the synthesis of these two panagonists is known in the art. The panagonists have the following structure [drawing 1]
At end of the study, animals were sacrificed & vitreal VEGF protein level was measured as described earlier.
Long Evans rats were treated with vehicle or streptozotocin (1×, 65 mg/kg). After 7 days, vehicle treated rats were treated further with a second vehicle and STZ treated diabetic rats were treated either with a second vehicle, Brimonidine (1 mg/kg/d) as a positive control, or the Alpha 2B selective agonist, [drawing 2] (“2B Agonist”) (300 ug or 3 mg/kg/d) for another 3 wks using mini-osmotic pumps At end of the study, animals were sacrificed & vitreal VEGF protein level was measured as described earlier.

[2] = test system: VEGF protein; test: VEGF protein levels in retina of STZ-treated BN rats; type: in vivo, Brown Norway (BN) rats; conditions: 5 wks, Mem 10 mg/kg/day or Bri 1 mg/kg/day for 4 wks after 1 wk of STZ, STZ/Veh 719, Veh/Veh 482
Protocol: (§1) Male Brown Norway (BN) rats were randomized into 4 different groups based on basal glucose and body weight. Using one time IP injection, one group of animals was treated with vehicle and other 3 groups were treated with 65 mg/kg streptozotocin (STZ). Within two days after STZ-treatment, blood glucose of the animals reached to 400 mg/dl from 100 mg/dl. After one wk of vehicle or STZ treatment, vehicle treated animals were further treated with a second vehicle for another 4 wks (Veh/Veh-35 D) and STZ treated animals were treated with either a second vehicle (STZ-35D/Veh-28D), Memantine, Mem (10 mg/kg/day) (STZ-35D/Mem-28D) or Brimonidine, Bri (1 mg/kg/day) for 4 wks (STZ-35D/Bri-28D) using mini osmotic pumps.

[3] = test system: VEGF protein; test: VEGF protein levels in vitreous fluid of STZ-treated BN rats; type: in vivo, Brown Norway (BN) rats; conditions: 5 wks, Mem 10 mg/kg/day or Bri 1 mg/kg/day for 4 wks after 1 wk of STZ, STZ/Veh 259, Veh/Veh 157
Protocol: as §1

[4] = test system: blood-retinal barrier (BRB); test: Retinal BRB breakdown in STZ-treated BN rats; type: in vivo, Brown Norway (BN) rats; conditions: 5 wks, Mem 10 mg/kg/day or Bri 1 mg/kg/day for 4 wks after 1 wk of STZ, STZ/Veh 22.9, Veh/Veh 9.1
Protocol: as §1

[5] = test system: VEGF protein; test: VEGF protein levels in vitreous fluid of non-diabetic BN rats; type: in vivo, Brown Norway (BN) rats; conditions: Mem 10 mg/kg/day or Bri 1 mg/kg/day for 28 days
[6] = 300 ug/kg/d for 3 wks (1 wk after STZ)
[7] = 3 mg/kg/d for 3 wks (1 wk after STZ)

## S=c1[nH]cc(CC2CC=CC2)[nH]1 [2B Agonist]
[1]; [6]
  VEGF protein levels in vitreous fluid: 148 pg/mL
[1]; [7]
  VEGF protein levels in vitreous fluid: 130 pg/mL

## Brc1c(NC2=NCCN2)ccc2nccnc12 [Brimonidine, brimonidine]
[2]
  VEGF protein levels in retina: 455 pg/mg protein
[3]
  VEGF protein levels in vitreous fluid: 140 pg/mL
[4]
  BRB breakdown in retina: 12.2 ul plasma/g retina dry weight/hr
[5]
  difference in vitreous fluid VEGF protein levels vs vehicle: no difference
[1]; 1 mg/kg/d for 3 wks (1 wk after STZ)
  VEGF protein levels in vitreous fluid: 133 pg/mL

## CC12CC3CC(C)(C1)CC(N)(C3)C2 [Memantine, memantine]
[2]
  VEGF protein levels in retina: 475 pg/mg protein
[3]
  VEGF protein levels in vitreous fluid: 160 pg/mL
[4]
  BRB breakdown in retina: 11.9 ul plasma/g retina dry weight/hr
[5]
  difference in vitreous fluid VEGF protein levels vs vehicle: no difference

## c1cnc2c(c1)CC[C@@H](Cc1c[nH]cn1)C2 [panagonist A]
[1]; [6]
  VEGF protein levels in vitreous fluid: 133 pg/mL

## Cc1cccc([C@@H](C)c2c[nH]c(=S)[nH]2)c1C [panagonist B]
[1]; [6]
  VEGF protein levels in vitreous fluid: 122 pg/mL
[1]; [7]
  VEGF protein levels in vitreous fluid: 109 pg/mL
